Laboratory results taken from patent US11344534B2, “Cholinergic agonism for the treatment of pancreatic cancer” (priority 2017, dated 2022).
“Also recorded” adds a separate entry of the source.

Legend:
[1] = system: murine PDAC cell lines (Panc02, K8282); experiment: MTT assay, murine PDAC cell lines; type: cell-based, mouse; settings: agonist added to antagonist
Experimental: Cell proliferation in each cell line was assessed with a 3-(4,5-dimethylthiazol-2yl)-2,5-diphenyltetrazolium bromide (MTT) assay kit (Sigma) in accordance with the manufacturer's instructions. 3×10^3 cells were grown in 96-well plate to around ˜70% confluent, changed the 0.5% FBS medium, added the drugs respectively and incubated them for further 72 hrs incubation in a typical CO2 incubator (˜20% O2). Treated cells were rinsed twice with PBS, incubated in 10 ll MTT solution for 4 hr at 37° C., and 100 uL DMSO was added to each well. The absorbance of each well was measured at 570 nm using Tilter-Tech 96-well multiscanner (Becton Dickinson, Heidelberg, Germany). The relative number of viable cells compared with the number of cells without drug treatment was expressed as percent cell viability using the following formula:
Cell proliferation in each cell line was assessed with a 3-(4,5-dimethylthiazol-2yl)-2,5-diphenyltetrazolium bromide (MTT) assay kit (Sigma) in accordance with the manufacturer's instructions. 3×10^3 cells were grown in 96-well plate to ˜70% confluency, the media was changed to 0.5% FBS medium, the respective drugs were added, and they were incubated for an additional 72 hours in a CO2 incubator (˜5% CO2). Treated cells were rinsed twice with PBS, incubated in 10 ul MTT (5 mg/ml PBS) solution for 4 hours at 37° C., and 100 uL DMSO was then added to each well. The absorbance of each well was measured at 570 nm using a Tilter-Tech 96-well multiscanner (Becton Dickinson, Heidelberg, Germany). The relative number of viable cells compared with the number of cells without drug treatment was expressed as percent cell viability using the following formula: cell viability (%)=A570 of treated cells/A570 of untreated cells.

[2] = system: Kras^+/LSL-G12D mutant spheres; experiment: 3D Matrigel sphere culture of Kras mutant (Ad-Cre) pancreatic acinar cells; type: cell-based, mouse
Experimental: Cholinergic stimulation could in theory promote cancer indirectly through effects on stromal cells, or directly through effects on pancreatic epithelial cells. To determine whether cholinergic stimulation promoted tumor development in part through muscarinic receptors on cancer cells, the sphere forming capacity of K-Ras^+/LSL-G12D mutant pancreatic acinar cells was assessed in a 3D Matrigel culture system, with or without muscarinic stimulation. K-Ras^+/LSL-G12D mutant spheres were generated from K-Ras^+/LSL-G12D pancreatic acinar cells by treatment with adenoviral delivered Cre (Ad-Cre).
3D cultures were performed as described previously (Wescott et al., 2009). Organoids were cultured for 5 days before analysis. Adenoviral delivered Cre (Ad-Cre) was added to the cultures and medium was changed after 12 hours. […] Sphere size and […] were analyzed using ImageJ software.
To determine whether cholinergic stimulation suppresses tumor development in part through specific muscarinic receptors on cancer cells, the sphere forming capacity of Kras^+/LSL-G12D pancreatic acinar cells in a 3D Matrigel culture system in the absence and presence of muscarinic agonists and antagonists was assessed. Kras^+/LSL-G12D mutant spheres were generated from Kras^+/LSL-G12D mice by delivery of an adenoviral Cre (Ad-Cre).
3D cultures were performed as described previously^18. Organoids were cultured for 5 days before analysis. Adenoviral delivered Cre (Ad-Cre) was added to the cultures and medium was changed after 12 hours. […] Sphere size and number were analyzed using ImageJ software.

Chrm1 = experiment: qRT-PCR of muscarinic receptor expression, murine PDAC cell lines; type: cell-based, mouse; settings: murine PDAC cell lines (Panc02 and K8282), compared to control
PDA patients = experiment: Pilot feasibility study of bethanechol in patients with resectable PDA; type: in vivo, human
Experimental: Our ongoing pilot feasibility study assesses the impact of 1 week of a fixed dose of bethanechol on pharmacodynamics endpoints in resected pancreatic cancer specimens. […] Subjects receive 100 mg of bethanechol by mouth twice daily for 1 week, discontinuing bethanechol 24 hours prior to scheduled surgery. All subjects will be assessed for toxicity while receiving bethanechol, and for 30 days thereafter. The primary endpoint in the pilot study is a change in cell proliferation (Ki-67 index). […] We will compare gene expression profiles and regulatory networks between treated samples with matched controls in our dataset of >200 PDA, RNAseq analysis will be performed.

Panc02 liver metastases = experiment: Panc02 liver metastatic model (splenic injection, hemi-splenectomy); type: in vivo, mouse
From the text: A metastatic mouse model of pancreatic cancer has been developed. The procedure reported by Lei Zheng has been modified and involves resecting half the spleen followed by injection 2×10^6 Panc02 (or other PDAC cell lines) into the spleen (4, 5). (FIG. 3A, B). Mice are then sacrificed 30-60 days later. […] In combination with this metastatic model of pancreatic cancer, a surgical approach to achieve selective cholinergic denervation of the liver has been developed. This involves identifying and isolating the hepatic branch of the vagal nerve, followed by resection of the hepatic branch (FIG. 3E, F).
In additional preliminary studies, the effects of bethanechol on the progression of liver metastases and in survival were examined. […] There were 5-8 mice in each group.
Then, it was examined whether the direct parasympathetic signal influences the metastatic lesions. The liver is a major site of metastatic spread for pancreatic cancer as well as many other solid tumors, and many patients with advanced PDAC eventually die with liver metastases. In order to investigate the role of parasympathetic signaling on the growth of liver metastasis, a well established syngeneic model of metastatic pancreatic cancer (Soares et al. 2014) was utilized. […] Moreover, to confirm that the parasympathetic pathway directly regulated tumor cells at the liver metastatic site, expression of Ki67, CD44 and pEGFR was analyzed.
Liver metastatic model procedure was performed previously described. (Soares K C et al. 2014) Briefly, a left subcostal incision was performed along the line with the left ear and the spleen was exposed through the incision. The spleen was divided into upper and lower spleen by placing two Horizon medium size ligating clips in the center of the spleen. 150 μl of phosphate buffered saline was drawn up into a 27 G×⅝″ syringe and 100 μl of Panc02 (2×10^6) cells was also drawn up into the same syringe and the cells were injected slowly into the exposed lower-hemispleen. Lower hemisplenectomy was performed by ligating pancreas spleen vessel and cutting above.
However, given that many PDAC patients with metastatic disease (Stage IV) eventually die with liver metastases, the effect of parasympathetic signaling on the growth of hepatic lesions was examined utilizing a well-established syngeneic model of metastatic PDAC^32. […] Moreover, to confirm that the parasympathetic pathway directly regulated tumor cells at the liver metastatic site, expression of Ki67 (FIGS. 12H-K), p-EGFR (FIGS. 12L-O) and CD44 (FIGS. 12P-S) were analyzed immunohistochemically. […]

[3] = day 5, pilocarpine 1 mM, scopolamine 10 μM, McN-34A 50 μM, pirenzepine 50 μM, vs controls
[4] = Panc02 liver metastatic model, at necropsy
[5] = Panc02 liver metastatic model, bethanechol vs untreated control

Compound	increase in proliferation due to muscarinic antagonists [1]	number of spheres [2, 3]	size of spheres [2, 3]	sphere formation and growth of Kras mutant spheres ([2]; oncogenic K-Ras allele activated by adeno-Cre virus)	Chrm1 expression (Chrm1)	plasma TNFα levels (PDA patients; PDA patients, bethanechol 100 mg twice daily for 1 week, preliminary pilot data)	Ki-67, CD44, pERK and p-EGFR (IHC staining of PDA tissue) (PDA patients; bethanechol-treated patients compared to untreated patients)	other cytokine levels such as ICAM-1 and MIF (PDA patients; plasma of a study patient, pre- vs post-treatment, cytokine antibody array)	(maximum) tumor volume (Panc02 liver metastases; [4])	number of tumors (Panc02 liver metastases; [4])	survival (Panc02 liver metastases; Panc02 liver metastatic model, bethanechol in drinking water, controls 29 days) [days]	survival (in words) (Panc02 liver metastases; [5])	tumor growth (Panc02 liver metastases; [5])	immunohistochemical markers: Ki67, C44, F4/80, nerves (peripherin or neurofilament), phospho-EGFR and phosphor-PI3K (Panc02 liver metastases; after bethanechol treatment)	expression of Ki67, p-EGFR and CD44 in liver metastases (Panc02 liver metastases; bethanechol group vs untreated control)	reduction in Ki-67 staining of Panc02 liver mets (Panc02 liver metastases; mice, bethanechol treatment) [%]
CC[C@@H]1C(=O)OC[C@@H]1Cc1cncn1C [pilocarpine, (3S,4R)-3-ethyl-4-[(3-methylimidazol-4-yl)methyl]oxolan-2-one]	blocked; also recorded: inhibited to some extent	significantly fewer; also recorded: reduced	smaller	significant inhibitory effect; also recorded: decrease; also recorded: suppresses	decreased; also recorded: lower											
CC(C[N+](C)(C)C)OC(N)=O (stereo not shown) [bethanechol, 2-[(aminocarbonyl)oxy]-N,N,N-trimethyl-1-propanaminium]						trend towards lower	might lead to a decrease	possible reductions	inhibited	inhibited	41	significantly longer; also recorded: extend; also recorded: significantly prolonged	inhibited; also recorded: suppressed	decreased	significantly decreased; also recorded: suppression	50
